This note sets out measurements from US20030083469A1, “Allosteric control of nuclear hormone receptors” (The Salk Institute for Biological Studies, priority 1995, published 2003).

In assay [1] the target is T1, GAL-RXR (Homo sapiens, UniProt P19793).
T1 construct: human RXRα LBD (Glu 203 - Thr 462); expressed in transfected cells; host or cells: CV-1
T1 sequence (P19793 203-462): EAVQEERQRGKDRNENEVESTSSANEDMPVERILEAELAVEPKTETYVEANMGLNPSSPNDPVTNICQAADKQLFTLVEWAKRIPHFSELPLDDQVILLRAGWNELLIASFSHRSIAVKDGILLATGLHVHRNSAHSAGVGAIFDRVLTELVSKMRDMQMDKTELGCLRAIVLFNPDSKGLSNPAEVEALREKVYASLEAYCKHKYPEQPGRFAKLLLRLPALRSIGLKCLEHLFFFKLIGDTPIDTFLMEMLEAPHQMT
Kind of assay: Transient transfection analysis of GAL-RXR LBD alone (UASG x4 TK-LUC, CV-1 cells). Type of assay: cell-based. Particulars: 100 nM LG69. The procedure: (§1) CV-1 cells were grown in Dulbecco's Modified Eagle's medium supplemented with 10% resin-charcoal stripped (Samuels et al., Endocrinology 105:80-85 (1979)) fetal bovine serum, 50 U/ml penicillin G and 50 μg/ml streptomycin sulfate (DMEM-FBS) at 37° C. in 5% CO2. One day prior to transfection, cells were plated to 50-80% confluence using phenol-red free DMEM-FBS. Cells were transfected by lipofection using N-{2-(2,3)-dioleoyloxy)propyl-N,N,N-trimethyl ammonium methyl sulfate} according to the manufacturer's instructions (DOTAP, Boehringer Mannheim). […]. All points were performed in triplicate in each experiment and varied by less than 10%. Each experiment was repeated three or more times with similar results.
(§2) Thus, a chimeric protein was constructed containing the yeast GAL4 DBD linked to the RXR LBD (GAL-RXR). The ability of this RXR-chimera to respond to LG69 was initially examined in the presence of truncated receptors containing the LBDs of T3R or RAR. Thus, transient transfection analysis of GAL-RXR LBD was carried out in the presence of T3R, RAR or VDR LBDs. Reporter constructs contained 4 copies of the UASG cloned upstream of the TK-LUC reporter. […] Normalized luciferase activity was determined and plotted as reporter activity (see FIG. 3).
(§3) […]. Normalized luciferase activity was determined and plotted as fold-activation relative to untreated cells.

The target of assay [2] is T2, RXR LBD (Homo sapiens, UniProt P19793).
T2 construct: or the human RXRα LBD (Glu 203 -Thr 462); expressed in transfected cells; host or cells: CV-1
T2 sequence (P19793 203-462): T1 sequence (P19793 203-462)
Kind of assay: Transient transfection, RXR LBD expressed alone (UASG x4 TK-LUC). The format is cell-based. As to conditions: 100 nM LG69. The procedure: (§4) CV-1 cells were grown in Dulbecco's Modified Eagle's medium supplemented with 10% resin-charcoal stripped (Samuels et al., Endocrinology 105:80-85 (1979)) fetal bovine serum, 50 U/ml penicillin G and 50 μg/ml streptomycin sulfate (DMEM-FBS) at 37° C. in 5% CO2. One day prior to transfection, cells were plated to 50-80% confluence using phenol-red free DMEM-FBS. Cells were transfected by lipofection using N-{2-(2,3)-dioleoyloxy)propyl-N,N,N-trimethyl ammonium methyl sulfate} according to the manufacturer's instructions (DOTAP, Boehringer Mannheim). […] Cells were harvested and assayed for luciferase and β-galactosidase activity. All points were performed in triplicate in each experiment and varied by less than 10%. Each experiment was repeated three or more times with similar results.
Since RXR serves as a silent partner in the T3R and RAR pathways, it was next investigated whether RXR could serve as an active component in other complexes. To search for such complexes, the LBD of a number of nuclear receptors were fused to the GAL4 DBD, and tested to determine whether the RXR LBD could confer LG69 responsiveness upon these GAL-LBD chimeras. […] Normalized luciferase activity was determined and plotted as fold-activation relative to untreated cells.

Assay [3] concerns the target T3, Nurrl+RXR LBD (Homo sapiens, UniProt P19793).
T3 construct: or the human RXRα LBD (Glu 203 -Thr 462); expressed in transfected cells; host or cells: CV-1
Description: Transient transfection of Nurrl with RXR LBD on NBRE x3 reporter. Type of assay: cell-based, mouse Nurrl, human RXRα. Particulars: NBRE×3; 100 nM LG69. The procedure:
as §4
This prompted an investigation of the question of whether the RXR DBD is required for activation through the Nurrl pathway. Thus, CV-1 cells were transfected with TK-LUC reporters (300 ng/10^5 cells), CMX-βgal (500 ng/10^5 cells) and the indicated CMX-receptor construct (20 ng/10^5 cells; see FIG. 7D) with or without CMX-RXR-LBD (100 ng/10^5 cells) . […] Normalized luciferase activity was determined and plotted as percent of maximal fold-activation where 100% is defined as the fold activation by T3R, RAR, VDR, the RXR LBD, or Nurrl+RXR LBD. […]

Assay [4] concerns the target T4, Nurrl (Mus musculus, UniProt Q06219).
T4 construct: an expression vector for full-length mouse Nurrl; expressed in transfected cells; host or cells: CV-1
Kind of assay: Transient transfection of full-length Nurrl on NBRE x3 TK-LUC. Type of assay: cell-based. As to conditions: Nurrl alone; 100 nM LG69. The procedure:
as §4
Thus, CV-1 cells were tranfected with NBRE×3 TK-LUC (300 ng/10^5 cells) , CMX-βgal (500 ng/10^5 cells), alone or with CMX-Nurrl (100 ng/10^5 cells) and CMX-hRXRα (100 ng/10^5 cells) as indicated in FIG. 7B. Following transfection, cells were treated with or without 100 nM LG69. Normalized luciferase activity was determined and plotted as reporter activity.

Assay [5] addresses T5, GAL-RXR + RAR LBD (Homo sapiens, UniProt P10276+P19793).
T5 construct: human RXRα LBD (Glu 203 - Thr 462); HRARα LBD (Glu 156 - PRO 462); expressed in transfected cells; host or cells: CV-1
T5 sequence (P19793 203-462): T1 sequence (P19793 203-462)
T5 sequence (P10276 156-462): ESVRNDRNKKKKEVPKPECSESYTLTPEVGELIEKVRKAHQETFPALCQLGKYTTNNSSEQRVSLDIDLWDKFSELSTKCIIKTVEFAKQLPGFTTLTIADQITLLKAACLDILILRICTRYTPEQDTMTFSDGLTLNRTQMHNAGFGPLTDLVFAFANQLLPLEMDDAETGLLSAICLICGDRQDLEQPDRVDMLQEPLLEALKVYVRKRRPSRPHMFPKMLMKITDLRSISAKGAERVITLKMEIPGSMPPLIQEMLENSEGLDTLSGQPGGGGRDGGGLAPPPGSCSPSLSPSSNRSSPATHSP
Description: Transient transfection analysis of GAL-RXR LBD in the presence of RAR LBD. The format is cell-based. As for the experimental part: as §1, §2, §3

T3 sequence (Q06219 whole entry partner, one chain of several, the tested form may be a part): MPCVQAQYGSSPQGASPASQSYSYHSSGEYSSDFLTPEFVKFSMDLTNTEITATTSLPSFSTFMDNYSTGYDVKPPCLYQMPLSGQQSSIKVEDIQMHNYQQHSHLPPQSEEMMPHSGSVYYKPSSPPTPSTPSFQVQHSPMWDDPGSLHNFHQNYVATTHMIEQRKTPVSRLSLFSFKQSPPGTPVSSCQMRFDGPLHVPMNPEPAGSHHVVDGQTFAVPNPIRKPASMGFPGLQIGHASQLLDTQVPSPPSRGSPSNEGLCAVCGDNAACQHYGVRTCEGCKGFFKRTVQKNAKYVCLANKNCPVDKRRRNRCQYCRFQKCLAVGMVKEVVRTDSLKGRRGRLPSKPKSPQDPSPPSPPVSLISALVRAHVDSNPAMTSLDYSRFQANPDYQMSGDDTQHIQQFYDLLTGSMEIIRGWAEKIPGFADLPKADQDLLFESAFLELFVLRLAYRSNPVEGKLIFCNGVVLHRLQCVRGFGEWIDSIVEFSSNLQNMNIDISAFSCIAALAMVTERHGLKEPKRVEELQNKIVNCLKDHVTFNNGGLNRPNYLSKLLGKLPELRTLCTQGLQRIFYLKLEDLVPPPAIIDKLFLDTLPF
T4 sequence (Q06219 whole entry): as the sequence (Q06219 whole entry partner, one chain of several, the tested form may be a part) above

Turning to `CC=C(c1ccc(C(=O)O)cc1)c1cc2c(cc1C)C(C)(C)CCC2(C)C` [LG69, 4-{1-(3,5,5,8,8-pentamethyl-5,6,7,8-tetrahydro-2-napthalenyl)-1-propenyl}benzoic acid], the “activation of the UASG reporter by GAL-RXR in response to ligand” value in assay [1] is on record as “activated”. In addition, the “fold response to LG69” value in assay [1] (GAL-RXR alone) is 69 fold. Moreover, the LG69 responsiveness result in assay [2] is on record as “not seen”. Also, in assay [3], the “LG69 responsiveness conferred upon Nurrl by the RXR LBD” value is “strong”. Moreover, the “responsiveness of Nurrl on the NBRE reporter” value in assay [4] is reported as “not responsive”. In assay [5] (GAL-RXR + RAR LBD, 50 nM AM580+100 nM LG69), the “transcriptional activity with Am580+LG69 over that seen with AM580 alone” value is listed as “increased transcriptional activity”. In assay [5] (unliganded RAR LBD present, 100 nM LG69), the “fold-responsiveness of GAL-RXR to LG69” value is “strongly suppressed”.
